Laboratory results from ChEMBL document CHEMBL5360656, “Structure-Based Design of Transport-Specific Multitargeted One-Carbon Metabolism Inhibitors in Cytosol and Mitochondria” (J Med Chem, 2023).
The source made the active and inactive calls. The rule behind the calls is not given here.

Key:
KB = experiment: Antitumor activity against human KB cells assessed as inhibition of cell growth measured upto 96 hrs in presence of adenosine by Cell titer blue assay; format: functional, cell-based
CHO = experiment: cells; settings: Cricetulus griseus, 96 h

Compound	Activity (KB)	IC50 (CHO)
Nc1nc2[nH]c(CCCc3ccc(C(=O)N[C@@H](CCC(=O)O)C(=O)O)s3)cc2c(=O)[nH]1	inactive	–
Nc1nc2[nH]cc(CCc3ccc(C(=O)N[C@@H](CCC(=O)O)C(=O)O)cc3)c2c(=O)[nH]1 [PEMETREXED]	–	60 nM
